Test results published in patent US4340539A, “Derivatives of 6-bromo penicillanic acid” (priority 1980, dated 1982).
Like-named read-outs stand apart in the source and are kept apart here.

What was measured:
S. aureus = test: Antibacterial activity (MIC); assay type: cell-based; details: Staphylococcus aureus
[1] = system: β-lactamase producing strains of S. aureus; test: animal or person; assay type: in vivo, mice; details: Staphylococcus aureus, in Mus musculus, po
Method: (§1) Drugs were administered orally at 0 and 2 hours postinfection.
(§2) Drugs were suspended in TCMC.

[2] = system: β-lactamase producing strains of E. coli; test: animal or person; assay type: in vivo, mice; details: Escherichia coli, in Mus musculus, po
Method: as §1, §2

S. pyogenes = test: Antibacterial activity (MIC); assay type: cell-based; details: Streptococcus pyogenes; strain A-9604
S. pneumoniae = test: Antibacterial activity (MIC); assay type: cell-based; details: Streptococcus pneumoniae; strain A-9585
P. morganii = test: Antibacterial activity (MIC); assay type: cell-based; details: Morganella morganii; strain A15153
[3] = system: β-lactamase-producing bacteria; test: Protection of ceforanide and amoxicillin from destruction by β-lactamase-producing bacteria; details: in vitro and in vivo, in combination
K. pneumoniae = test: Antibacterial activity (MIC); assay type: cell-based
P. mirabilis = test: Antibacterial activity (MIC); assay type: cell-based; details: Proteus mirabilis; strain A-9900
S. faecalis = test: Antibacterial activity (MIC); assay type: cell-based; details: Enterococcus faecalis; strain A20688
S. aureus A-9606 = test: Therapeutic efficacy in mice experimentally infected with a beta-lactamase strain of Staphylococcus aureus (Table 3); assay type: in vivo; details: for ED50: Staphylococcus aureus, A9606, challenge 5 × 10^8, read-out: PD50/Treatment
Method: Treatment schedule: Drugs administered 0 and 2 hours postinfection.

S. marcescens = test: Antibacterial activity (MIC); assay type: cell-based; details: Serratia marcescens; strain A20019
P. rettgeri = test: Antibacterial activity (MIC); assay type: cell-based; details: Providencia rettgeri; strain A21203
E. coli = test: Antibacterial activity (MIC); assay type: cell-based; details: Escherichia coli
Bacteroides species = test: Anti-Bacteroides activity (MIC, agar dilution), alone and in combination with BL-P2013; assay type: cell-based
B. fragilis = test: as above; assay type: cell-based
β-lactamases = test: Inhibition of β-lactamases; assay type: biochemical
P. vulgaris = test: Antibacterial activity (MIC); assay type: cell-based; details: Proteus vulgaris; strain A21559
E. cloacae = test: Antibacterial activity (MIC); assay type: cell-based; details: Enterobacter cloacae
bacteria = test: Antibacterial activity (statement); assay type: cell-based
[4] = Blood levels after oral administration to mice (Table 4); assay type: in vivo; details: mouse; for concentration at 0.5 h: 30 min; for concentration at 1 h: 60 min; for concentration at 2 h: 120 min
B. thetaiotaomicron = test: Anti-Bacteroides activity (MIC, agar dilution), alone and in combination with BL-P2013; assay type: cell-based
Method: *Minimum inhibitory concentration (MIC) determined by the agar dilution
method using 50X dilutions of 24 hour cultures as inocula dispensed by th
Steer's inoculator. Assay medium composed of Brucella Agar plus 5% laked
sheep blood and 10 mcg/ml vitamin K.

P. aeruginosa = test: Antibacterial activity (MIC); assay type: cell-based
[5] = 100 mg/kg, oral 100 mg/kg, assay organism E. coli A-9675, read-out: Blood level
[6] = 100 mg/kg, oral 100 mg/kg, assay organism S. aureus A-9606, read-out: Blood level
[7] = 200 mg/kg, oral 200 mg/kg, assay organism S. aureus A-9606, read-out: Blood level

CC1(CCl)C(C(=O)O)N2C(=O)CC2S1(=O)=O (stereo not drawn) [BL-P2013, Potassium 2β-Chloromethyl-2α-methylpenam-3α-carboxylate Sulfone]
MIC (S. aureus; strain A15097, Meth-Res): > 125 µg/mL
MIC (S. aureus; strain A-9537): > 125 µg/mL
MIC (S. aureus; strain A-9537, + 50% serum): > 125 µg/mL
MIC (S. aureus; strain A-9606, Pen-Res): > 125 µg/mL
ED50 ([1]; read-out: PD50/Treatment, oral, S. aureus A9606, challenge 2 × 10^9): > 200 mg/kg
ED50 ([1]; read-out: PD50/Treatment, oral, S. aureus A9606, challenge 7 × 10^8): > 200 mg/kg
ED50 ([1]; read-out: PD50/Treatment, oral, S. aureus A15091, challenge 4 × 10^8): > 200 mg/kg
ED50 ([1]; read-out: PD50/Treatment, oral, S. aureus A15091, challenge 5 × 10^8): > 200 mg/kg
ED50 ([1]; read-out: PD50/Treatment, oral, S. aureus A20379, challenge 5 × 10^8): > 200 mg/kg
ED50 ([1]; read-out: PD50/Treatment, oral, S. aureus A20379, challenge 6 × 10^8): 174 mg/kg
ED50 ([2]; read-out: PD50/Treatment, oral, E. coli A9675, challenge 6 × 10^5): > 200 mg/kg
ED50 ([2]; read-out: PD50/Treatment, oral, E. coli A9675, challenge 7 × 10^5): > 100 mg/kg
ED50 ([2]; read-out: PD50/Treatment, oral, E. coli A9675, challenge 8 × 10^5): > 200 mg/kg
ED50 ([2]; read-out: PD50/Treatment, oral, E. coli A20649, challenge 5 × 10^5): > 200 mg/kg
ED50 ([2]; read-out: PD50/Treatment, oral, E. coli A20649, challenge 6 × 10^5): > 200 mg/kg
ED50 ([2]; read-out: PD50/Treatment, oral, E. coli A21223, challenge 6 × 10^5): > 200 mg/kg
ED50 ([2]; read-out: PD50/Treatment, oral, E. coli A21223, challenge 7 × 10^5 (first line)): > 200 mg/kg
ED50 ([2]; read-out: PD50/Treatment, oral, E. coli A21223, challenge 7 × 10^5 (third line)): > 200 mg/kg
MIC (S. pyogenes): 63 µg/mL
MIC (S. pneumoniae): 16 µg/mL
MIC (P. morganii): > 125 µg/mL
protection of ceforanide and amoxicillin from destruction [3]: protected ceforanide and amoxicillin from destruction by β-lactamase-producing bacteria in vitro and in vivo
MIC (K. pneumoniae; Klebsiella pneumoniae, strain A15130, read-out: MIC): > 125 µg/mL
MIC (K. pneumoniae; strain A20468): > 125 µg/mL
MIC (P. mirabilis): > 125 µg/mL
MIC (S. faecalis): > 125 µg/mL
PD50/Treatment (S. aureus A-9606; IM, challenge 7 × 10^8): > 50 mg/kg
ED50 (S. aureus A-9606; IM): > 50 mg/kg
ED50 (S. aureus A-9606; PO): > 200 mg/kg
MIC (S. marcescens): > 125 µg/mL
MIC (P. rettgeri): > 125 µg/mL
MIC (E. coli; strain A15119): > 125 µg/mL
MIC (E. coli; strain A20341-1): > 125 µg/mL
MIC (Bacteroides species; Bacteroides): 63 µg/mL
MIC (Bacteroides species; Bacteroides, strain A20929, β-lactamase +, read-out: MIC): 32 µg/mL
MIC (Bacteroides species; Bacteroides, strain A20930, β-lactamase +, read-out: MIC): 125 µg/mL
MIC (Bacteroides species; Bacteroides, strain A20931, β-lactamase +, read-out: MIC): 32 µg/mL
MIC (Bacteroides species; Bacteroides, strain A20934, β-lactamase +, read-out: MIC): 32 µg/mL
MIC (Bacteroides species; Bacteroides, strain A20935, β-lactamase -, read-out: MIC): 125 µg/mL
MIC (Bacteroides species; Bacteroides, strain A21959, β-lactamase +, read-out: MIC): 32 µg/mL
MIC (Bacteroides species; strain A20927-1, β-lactamase -): 63 µg/mL
MIC (Bacteroides species; strain A20933, β-lactamase +): 63 µg/mL
MIC (B. fragilis; strain A21875, β-lactamase +): 63 µg/mL
MIC (B. fragilis; strain A21916, β-lactamase +, read-out: MIC): > 125 µg/mL
MIC (B. fragilis; strain A22021, β-lactamase +, read-out: MIC): 32 µg/mL
MIC (B. fragilis; strain A22053, β-lactamase +): 63 µg/mL
MIC (B. fragilis; strain A22533, β-lactamase +, read-out: MIC): 32 µg/mL
MIC (B. fragilis; strain A22534, β-lactamase +, read-out: MIC): 125 µg/mL
MIC (B. fragilis; strain A22535, β-lactamase +, read-out: MIC): 125 µg/mL
MIC (B. fragilis; strain A22693, β-lactamase +): 63 µg/mL
MIC (B. fragilis; strain A22694, β-lactamase +): 63 µg/mL
MIC (B. fragilis; strain A22695, β-lactamase +, read-out: MIC): 32 µg/mL
MIC (B. fragilis; strain A22696, β-lactamase +): 63 µg/mL
MIC (B. fragilis; strain A22697, β-lactamase +): 63 µg/mL
MIC (B. fragilis; strain A22792, β-lactamase +, read-out: MIC): 32 µg/mL
MIC (B. fragilis; strain A22793, β-lactamase +, read-out: MIC): 32 µg/mL
MIC (B. fragilis; strain A22794, β-lactamase +, read-out: MIC): 32 µg/mL
MIC (B. fragilis; strain A22795, β-lactamase +, read-out: MIC): 32 µg/mL
MIC (B. fragilis; strain A22797, β-lactamase +): 63 µg/mL
MIC (B. fragilis; strain A22798, β-lactamase +): 63 µg/mL
β-lactamase inhibition (β-lactamases): inhibits β-lactamases
MIC (P. vulgaris): > 125 µg/mL
MIC (E. cloacae; strain A-9656): > 125 µg/mL
MIC (E. cloacae; strain A-9659): > 125 µg/mL
antibacterial activity (bacteria): at best a very weak antibacterial agent
concentration at […] ([4]; 100 mg/kg, oral 100 mg/kg, 15 min, assay organism E. coli A-9675, read-out: Blood level): 4500 ng/mL
concentration at […] ([4]; 100 mg/kg, oral 100 mg/kg, 15 min, assay organism S. aureus A-9606, read-out: Blood level): 4600 ng/mL
concentration at 0.5 h [4, 5]: 5100 ng/mL
concentration at 0.5 h [4, 6]: 4100 ng/mL
concentration at 1 h [4, 6]: 3000 ng/mL
concentration at […] ([4]; 100 mg/kg, oral 100 mg/kg, 90 min, assay organism E. coli A-9675, read-out: Blood level): 2300 ng/mL
concentration at […] ([4]; 100 mg/kg, oral 100 mg/kg, 90 min, assay organism S. aureus A-9606, read-out: Blood level): < 2600 ng/mL
concentration at 2 h [4, 5]: 1500 ng/mL
concentration at 2 h [4, 6]: < 2600 ng/mL
concentration at […] ([4]; 100 mg/kg, oral 100 mg/kg, 150 min, assay organism S. aureus A-9606, read-out: Blood level): < 2600 ng/mL
half-life ([4]; 100 mg/kg, oral 100 mg/kg, assay organism E. coli A-9675): 50 min
concentration at […] ([4]; 200 mg/kg, oral 200 mg/kg, 15 min, assay organism S. aureus A-9606, read-out: Blood level): 7400 ng/mL
concentration at 0.5 h [4, 7]: 9800 ng/mL
concentration at 1 h [4, 7]: 7100 ng/mL
concentration at […] ([4]; 200 mg/kg, oral 200 mg/kg, 90 min, assay organism S. aureus A-9606, read-out: Blood level): 4100 ng/mL
concentration at 2 h [4, 7]: 2800 ng/mL
concentration at […] ([4]; 200 mg/kg, oral 200 mg/kg, 150 min, assay organism S. aureus A-9606, read-out: Blood level): < 2600 ng/mL
half-life ([4]; 200 mg/kg, oral 200 mg/kg, assay organism S. aureus A-9606): 50 min
MIC (B. thetaiotaomicron; Bacteroides thetaiotaomicron, strain A22277, β-lactamase +, read-out: MIC): 63 µg/mL
MIC (B. thetaiotaomicron; strain A22279, β-lactamase +): 63 µg/mL
MIC (P. aeruginosa; Pseudomonas aeruginosa, strain A-9843A, read-out: MIC): > 125 µg/mL
MIC (P. aeruginosa; strain A21213): > 125 µg/mL
